Assay results taken from PubChem BioAssay AID248 (DTP/NCI, 2004).
Values joined by “and” are separate entries in the source; they are usually repeats but may differ in a detail not shown here. Equal values may be shown once. Inconclusive results and toxic doses are left out. Cut-off read from the data, not from the text of the source: active = T/C of 150% or more; inactive = T/C below 125%.

Tested on: L1210 leukemia ip in BDF1 mice, survival T/C
Experiment: NCI In Vivo Anticancer Drug Screen. Data for tumor model L1210 Leukemia (intraperitoneal) in B6D2F1 (BDF1) mice
Conditions: endpoint: mean survival time, higher = longer survival
In short: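 In this screen, tumor-bearing mice given compound are compared to those given vehicle, and their survival values are reported as a treated-to-control quotient.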

[1] = dose: 25.0 mg/kg/injection, schedule: Q01DX009 (ip), vehicle: saline with Tween-80
[2] = dose: 50.0 mg/kg/injection, schedule: Q01DX009 (ip), vehicle: saline with Tween-80
[3] = dose: 100.0 mg/kg/injection, schedule: Q04DX002 (ip), vehicle: Klucel (hydroxypropylcellulose) (HPC)
[4] = dose: 200.0 mg/kg/injection, schedule: Q04DX002 (ip), vehicle: Klucel (hydroxypropylcellulose) (HPC)
[5] = dose: 400.0 mg/kg/injection, schedule: Q04DX002 (ip), vehicle: Klucel (hydroxypropylcellulose) (HPC)
[6] = dose: 100.0 mg/kg/injection, schedule: Q01DX009 (ip), vehicle: saline with Tween-80
[7] = dose: 200.0 mg/kg/injection, schedule: Q01DX009 (ip), vehicle: saline with Tween-80
[8] = dose: 400.0 mg/kg/injection, schedule: Q01DX009 (ip), vehicle: saline with Tween-80
[9] = dose: 100.0 mg/kg/injection, schedule: Q04DX003 (ip), vehicle: saline with Tween-80

Measured: T/C

CNc1ccc(/C=C2\C=Cc3ccccc32)cc1
inactive: dose: 12.0 mg/kg/injection, schedule: Q01DX Z (ip), vehicle: carboxymethylcellulose (CMC) 95 % of control | dose: 25.0 mg/kg/injection, schedule: Q01DX Z (ip), vehicle: carboxymethylcellulose (CMC) 98 % of control | dose: 50.0 mg/kg/injection, schedule: Q01DX001 (ip), vehicle: carboxymethylcellulose (CMC) 101 % of control | dose: 50.0 mg/kg/injection, schedule: Q01DX Z (ip), vehicle: carboxymethylcellulose (CMC) 120 % of control | dose: 100.0 mg/kg/injection, schedule: Q01DX001 (ip), vehicle: carboxymethylcellulose (CMC) 101 % of control | dose: 100.0 mg/kg/injection, schedule: Q01DX Z (ip), vehicle: carboxymethylcellulose (CMC) 93 % of control | dose: 200.0 mg/kg/injection, schedule: Q01DX001 (ip), vehicle: carboxymethylcellulose (CMC) 108 % of control | dose: 200.0 mg/kg/injection, schedule: Q01DX Z (ip), vehicle: carboxymethylcellulose (CMC) 98 % of control | dose: 400.0 mg/kg/injection, schedule: Q01DX001 (ip), vehicle: carboxymethylcellulose (CMC) 100 % of control

O=[N+]([O-])/C=C/c1ccccc1Cl
inactive: dose: 5.0 mg/kg/injection, schedule: Q01DX009 (ip), vehicle: other 98 % of control | dose: 6.25 mg/kg/injection, schedule: Q01DX009 (ip), vehicle: saline with Tween-80 100 % of control | dose: 10.0 mg/kg/injection, schedule: Q01DX009 (ip), vehicle: other 110 % of control | dose: 12.5 mg/kg/injection, schedule: Q01DX009 (ip), vehicle: saline with Tween-80 95 % of control | dose: 15.0 mg/kg/injection, schedule: Q04DX003 (ip), vehicle: other 114 % of control | dose: 20.0 mg/kg/injection, schedule: Q01DX009 (ip), vehicle: other 100 % of control | [1] 101 % of control | dose: 30.0 mg/kg/injection, schedule: Q04DX003 (ip), vehicle: other 104 % of control | dose: 37.5 mg/kg/injection, schedule: Q01DX009 (sc), vehicle: olive oil, sesame oil, peanut oil 94 % of control | dose: 37.5 mg/kg/injection, schedule: Q04DX003 (ip), vehicle: Klucel (hydroxypropylcellulose) (HPC) 101 % of control | [2] 96 % of control | dose: 60.0 mg/kg/injection, schedule: Q04DX003 (ip), vehicle: other 108 % of control | dose: 75.0 mg/kg/injection, schedule: Q01DX001 (ip), vehicle: saline 92 % of control | dose: 75.0 mg/kg/injection, schedule: Q01DX009 (sc), vehicle: olive oil, sesame oil, peanut oil 94 % of control | dose: 75.0 mg/kg/injection, schedule: Q04DX003 (ip), vehicle: Klucel (hydroxypropylcellulose) (HPC) 90 % of control | dose: 150.0 mg/kg/injection, schedule: Q04DX003 (ip), vehicle: Klucel (hydroxypropylcellulose) (HPC) 90 % of control

CCC(C)(CC)OC(=O)c1ccc([N+](=O)[O-])cc1
inactive: [3] 113 % of control | [4] 106 % of control | [5] 97 % of control

OCC(CO)(CCl)CCl
inactive: [6] 103 % of control | [7] 103 % of control | [8] 96 % of control

O=C(COC(=O)c1ccccc1C(=O)c1ccccc1O)c1ccc(-c2ccccc2)cc1
inactive: dose: 200.0 mg/kg/injection, schedule: Q01DX001 (ip), vehicle: saline 91 % of control | dose: 400.0 mg/kg/injection, schedule: Q01DX001 (ip), vehicle: saline 91 % of control

CC(C)(C)c1ccc(Oc2ccc([N+](=O)[O-])cc2[N+](=O)[O-])c(Br)c1
inactive: dose: 100.0 mg/kg/injection, schedule: Q01DX009 (ip), vehicle: Klucel (hydroxypropylcellulose) (HPC) 96 % of control | [3] 104 % of control | dose: 200.0 mg/kg/injection, schedule: Q01DX009 (ip), vehicle: Klucel (hydroxypropylcellulose) (HPC) 96 % of control | [4] 108 % of control | dose: 400.0 mg/kg/injection, schedule: Q01DX009 (ip), vehicle: Klucel (hydroxypropylcellulose) (HPC) 96 % of control | [5] 111 % of control

CCCCCCCC/C=C\CCCCCCCC(=O)OCC
inactive: dose: 100.0 mg/kg/injection, schedule: Q01DX001 (ip), vehicle: saline with Tween-80 98 % of control | dose: 200.0 mg/kg/injection, schedule: Q01DX001 (ip), vehicle: saline with Tween-80 107 % of control | dose: 400.0 mg/kg/injection, schedule: Q01DX001 (ip), vehicle: saline with Tween-80 95 % of control

CC(=O)OC(c1ccccc1)C(Cl)(Cl)Cl (stereo not given)
inactive: [6] 93 % of control | [7] 104 % of control | [8] 97 % of control

Nc1ccc2c(c1)sc1ccccc12
inactive: [9] 88 % of control | dose: 200.0 mg/kg/injection, schedule: Q04DX003 (ip), vehicle: saline with Tween-80 91 % of control

CCN(Cc1ccccc1)C(=O)Nc1cccc(Cl)c1
inactive: dose: 100.0 mg/kg/injection, schedule: Q01DX009 (ip), vehicle: other 106 % of control | dose: 200.0 mg/kg/injection, schedule: Q01DX009 (ip), vehicle: other 108 % of control | dose: 400.0 mg/kg/injection, schedule: Q01DX009 (ip), vehicle: other 105 % of control

CCC1CN2N=Cc3ccccc3C2=N1 (stereo not given)
inactive: dose: 10.0 mg/kg/injection, schedule: Q01DX001 (ip), vehicle: saline 105 % of control | dose: 20.0 mg/kg/injection, schedule: Q01DX001 (ip), vehicle: saline 103 % of control

CC(CO)(CI)[n+]1ccccc1 (stereo not given)
inactive: [1] 100 % of control | [2] 94 % of control | [6] 103 % of control | [9] 106 % of control

O=C(Nc1ccc(I)cc1)c1ccc([N+](=O)[O-])cc1
inactive: [3] 99 % of control | [4] 101 % of control | [5] 115 % of control

CCC(C)C(C#N)(CCN(CC=C(C)C)CC=C(C)C)c1cccc2ccccc12 (stereo not given)
inactive: dose: 100.0 mg/kg/injection, schedule: Q04DX003 (ip), vehicle: Klucel (hydroxypropylcellulose) (HPC) 96 % of control | dose: 200.0 mg/kg/injection, schedule: Q04DX003 (ip), vehicle: Klucel (hydroxypropylcellulose) (HPC) 110 % of control | dose: 400.0 mg/kg/injection, schedule: Q04DX003 (ip), vehicle: Klucel (hydroxypropylcellulose) (HPC) 93 % of control

ClC(Cl)(Cl)c1nccnc1Br
inactive: dose: 12.5 mg/kg/injection, schedule: Q01DX009 (ip), vehicle: Klucel (hydroxypropylcellulose) (HPC) 111 % of control | dose: 25.0 mg/kg/injection, schedule: Q01DX009 (ip), vehicle: Klucel (hydroxypropylcellulose) (HPC) 94 % of control | dose: 50.0 mg/kg/injection, schedule: Q01DX009 (ip), vehicle: Klucel (hydroxypropylcellulose) (HPC) 94 % of control and 104 % of control

O=c1[nH]c2ccccc2c(=O)n1C1CCCCC1
inactive: dose: 25.0 mg/kg/injection, schedule: Q01DX009 (ip), vehicle: water 96 % of control | dose: 50.0 mg/kg/injection, schedule: Q01DX009 (ip), vehicle: water 94 % of control | dose: 100.0 mg/kg/injection, schedule: Q01DX009 (ip), vehicle: water 103 % of control | dose: 200.0 mg/kg/injection, schedule: Q01DX009 (ip), vehicle: water 98 % of control | dose: 400.0 mg/kg/injection, schedule: Q01DX009 (ip), vehicle: water 101 % of control
